Assay results: PubChem BioAssay (NCI)
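Five concentrations, 48 hours, 96-well plates. TGI denotes the concentration required for complete inhibition of growth.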

Columns and labels:
Assay in all cases: NCI-60 cell line screen, 48 h
M14 melanoma = tested on: M14 melanoma
IGROV1 ovarian = tested on: IGROV1 ovarian
MDA-MB-231 breast = tested on: MDA-MB-231 breast
PC-3 prostate = tested on: PC-3 prostate
786-0 renal = tested on: 786-0 renal
UACC-62 melanoma = tested on: UACC-62 melanoma
K-562 leukemia = tested on: K-562 leukemia
LOX IMVI melanoma = tested on: LOX IMVI melanoma
RXF 393 renal = tested on: RXF 393 renal
MDA-MB-435 = tested on: MDA-MB-435
MALME-3M melanoma = tested on: MALME-3M melanoma
T-47D breast = tested on: T-47D breast
SNB-19 CNS = tested on: SNB-19 CNS
NCI-H23 lung = tested on: NCI-H23 lung
ACHN renal = tested on: ACHN renal
NCI-H226 lung = tested on: NCI-H226 lung
OVCAR-4 ovarian = tested on: OVCAR-4 ovarian
HL-60(TB) leukemia = tested on: HL-60(TB) leukemia
SF-295 CNS = tested on: SF-295 CNS
SK-MEL-5 melanoma = tested on: SK-MEL-5 melanoma
EKVX NSCLC = tested on: EKVX NSCLC
SK-MEL-28 melanoma = tested on: SK-MEL-28 melanoma
HCT-15 colon = tested on: HCT-15 colon
DU-145 prostate = tested on: DU-145 prostate
OVCAR-3 ovarian = tested on: OVCAR-3 ovarian
SK-MEL-2 melanoma = tested on: SK-MEL-2 melanoma
OVCAR-8 ovarian = tested on: OVCAR-8 ovarian
SK-OV-3 ovarian = tested on: SK-OV-3 ovarian
SN12C renal = tested on: SN12C renal
MCF7 breast = tested on: MCF7 breast
COLO 205 colon = tested on: COLO 205 colon
SF-539 CNS = tested on: SF-539 CNS
NCI-H522 lung = tested on: NCI-H522 lung
SW-620 colon = tested on: SW-620 colon
HCC-2998 colon = tested on: HCC-2998 colon
KM12 colon = tested on: KM12 colon
MDA-N = tested on: MDA-N
TK-10 renal = tested on: TK-10 renal
A549 NSCLC = tested on: A549 NSCLC
NCI-H460 lung = tested on: NCI-H460 lung
HOP-92 NSCLC = tested on: HOP-92 NSCLC
NCI/ADR-RES ovarian = tested on: NCI/ADR-RES ovarian
CCRF-CEM leukemia = tested on: CCRF-CEM leukemia
CAKI-1 renal = tested on: CAKI-1 renal
HCT-116 colon = tested on: HCT-116 colon
SR leukemia = tested on: SR leukemia
SNB-75 CNS = tested on: SNB-75 CNS
HT29 colon = tested on: HT29 colon
OVCAR-5 ovarian = tested on: OVCAR-5 ovarian
BT-549 breast = tested on: BT-549 breast
UACC-257 melanoma = tested on: UACC-257 melanoma
MOLT-4 leukemia = tested on: MOLT-4 leukemia
U251 CNS = tested on: U251 CNS
UO-31 renal = tested on: UO-31 renal
HS 578T breast = tested on: HS 578T breast
SF-268 CNS = tested on: SF-268 CNS
HOP-62 NSCLC = tested on: HOP-62 NSCLC
RPMI-8226 leukemia = tested on: RPMI-8226 leukemia
A498 renal = tested on: A498 renal

Measured: TGI

CN(C(=O)c1ccc2c(c1)sc1c(=O)n(C)c3ccccc3c12)c1ccccc1
> 100 µM: M14 melanoma | IGROV1 ovarian | MDA-MB-231 breast | PC-3 prostate | 786-0 renal | UACC-62 melanoma | K-562 leukemia | LOX IMVI melanoma | RXF 393 renal | MDA-MB-435 | MALME-3M melanoma | T-47D breast | SNB-19 CNS | NCI-H23 lung | ACHN renal | NCI-H226 lung | OVCAR-4 ovarian | HL-60(TB) leukemia | SF-295 CNS | SK-MEL-5 melanoma | EKVX NSCLC | SK-MEL-28 melanoma | HCT-15 colon | DU-145 prostate | OVCAR-3 ovarian | SK-MEL-2 melanoma | OVCAR-8 ovarian | SK-OV-3 ovarian | SN12C renal | MCF7 breast | COLO 205 colon | SF-539 CNS | NCI-H522 lung | SW-620 colon | HCC-2998 colon | KM12 colon | MDA-N | TK-10 renal | A549 NSCLC | NCI-H460 lung | HOP-92 NSCLC | NCI/ADR-RES ovarian | CCRF-CEM leukemia | CAKI-1 renal | HCT-116 colon | SR leukemia | SNB-75 CNS | HT29 colon | OVCAR-5 ovarian | BT-549 breast | UACC-257 melanoma | MOLT-4 leukemia | U251 CNS | UO-31 renal

COC(=O)C(=O)C(C(=O)C(=O)Nc1cccc([N+](=O)[O-])c1)c1nc2ccc(Cl)cc2[nH]c1=O (stereo unspecified)
> 100 µM: M14 melanoma | IGROV1 ovarian | MDA-MB-231 breast | PC-3 prostate | 786-0 renal | UACC-62 melanoma | LOX IMVI melanoma | RXF 393 renal | HS 578T breast | MDA-MB-435 | SNB-19 CNS | NCI-H23 lung | ACHN renal | NCI-H226 lung | OVCAR-4 ovarian | HL-60(TB) leukemia | SF-268 CNS | SF-295 CNS | SK-MEL-5 melanoma | EKVX NSCLC | SK-MEL-28 melanoma | HCT-15 colon | DU-145 prostate | OVCAR-3 ovarian | SK-MEL-2 melanoma | OVCAR-8 ovarian | SK-OV-3 ovarian | SN12C renal | MCF7 breast | COLO 205 colon | SF-539 CNS | NCI-H522 lung | SW-620 colon | HCC-2998 colon | KM12 colon | MDA-N | HOP-62 NSCLC | TK-10 renal | A549 NSCLC | NCI-H460 lung | HOP-92 NSCLC | NCI/ADR-RES ovarian | CCRF-CEM leukemia | CAKI-1 renal | HCT-116 colon | SNB-75 CNS | HT29 colon | OVCAR-5 ovarian | BT-549 breast | UACC-257 melanoma | MOLT-4 leukemia | U251 CNS | UO-31 renal

Cc1ccc(-c2nnc(CCCCCCCCc3nnc(-c4ccc(C)cc4O)n3N)n2N)c(O)c1
> 100 µM: M14 melanoma | IGROV1 ovarian | MDA-MB-231 breast | RPMI-8226 leukemia | 786-0 renal | UACC-62 melanoma | LOX IMVI melanoma | A498 renal | HS 578T breast | MDA-MB-435 | MALME-3M melanoma | T-47D breast | SNB-19 CNS | NCI-H23 lung | ACHN renal | OVCAR-4 ovarian | SF-268 CNS | SF-295 CNS | EKVX NSCLC | SK-MEL-28 melanoma | HCT-15 colon | DU-145 prostate | OVCAR-3 ovarian | SK-MEL-2 melanoma | OVCAR-8 ovarian | SK-OV-3 ovarian | SN12C renal | MCF7 breast | COLO 205 colon | SF-539 CNS | NCI-H522 lung | SW-620 colon | HCC-2998 colon | KM12 colon | MDA-N | TK-10 renal | A549 NSCLC | NCI-H460 lung | HOP-92 NSCLC | NCI/ADR-RES ovarian | CAKI-1 renal | HCT-116 colon | SR leukemia | SNB-75 CNS | OVCAR-5 ovarian | UACC-257 melanoma | MOLT-4 leukemia | U251 CNS | UO-31 renal

Nc1ccc(Nc2cc(=O)[nH]c(=O)[nH]2)cc1
> 100 µM: IGROV1 ovarian | MDA-MB-231 breast | RPMI-8226 leukemia | PC-3 prostate | 786-0 renal | UACC-62 melanoma | K-562 leukemia | LOX IMVI melanoma | A498 renal | HS 578T breast | MDA-MB-435 | MALME-3M melanoma | T-47D breast | SNB-19 CNS | NCI-H23 lung | ACHN renal | NCI-H226 lung | OVCAR-4 ovarian | HL-60(TB) leukemia | SF-268 CNS | SF-295 CNS | SK-MEL-5 melanoma | EKVX NSCLC | SK-MEL-28 melanoma | HCT-15 colon | DU-145 prostate | OVCAR-3 ovarian | OVCAR-8 ovarian | SK-OV-3 ovarian | SN12C renal | MCF7 breast | SF-539 CNS | NCI-H522 lung | SW-620 colon | HCC-2998 colon | KM12 colon | MDA-N | HOP-62 NSCLC | TK-10 renal | A549 NSCLC | NCI-H460 lung | NCI/ADR-RES ovarian | CCRF-CEM leukemia | CAKI-1 renal | HCT-116 colon | SR leukemia | HT29 colon | UACC-257 melanoma | MOLT-4 leukemia | U251 CNS
